Measurements: EP0278158A2, “Renin inhibitors containing phenylalanyl-histidine replacements” (Merck & Co., Inc., priority 1986, dated 1988)
Non-standard residues stand in square brackets, D forms with d. Residues, ends and D or L forms follow the SMILES beside them. *: point of attachment. Sta = CC(C)C[C@H](N)[C@@H](O)CC(=O)O; Isovaleryl = CC(C)CC(=O)*

How the values were obtained:
renin = molecular target: T1, renin (Homo sapiens, UniProt P00797); assay: renin inhibition (IC50 printed in the synthesis example, no method described); assay type: biochemical
T1 sequence (P00797 67-406): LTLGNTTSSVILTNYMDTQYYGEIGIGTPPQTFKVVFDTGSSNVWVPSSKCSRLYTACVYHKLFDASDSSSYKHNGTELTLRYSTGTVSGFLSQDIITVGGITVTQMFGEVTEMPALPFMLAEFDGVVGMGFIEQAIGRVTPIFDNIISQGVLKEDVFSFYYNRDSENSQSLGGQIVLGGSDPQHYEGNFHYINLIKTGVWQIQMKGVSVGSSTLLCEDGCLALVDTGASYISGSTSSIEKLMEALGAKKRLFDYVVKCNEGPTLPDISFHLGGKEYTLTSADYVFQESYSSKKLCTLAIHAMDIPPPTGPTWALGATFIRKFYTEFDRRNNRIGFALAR

hog renin = conditions: after the injection of hog renin into nephrectomized rats; Gross et al., Science 175:656, 1972; cited from earlier work

Row | Structure (SMILES) | IC50 (renin) | blood pressure in vivo (hog renin)
1 | CC(C)S(=O)(=O)C[C@@H](CCc1ccccc1)C(=O)N[C@@H](Cc1cnc[nH]1)C(=O)N[C@@H](CC1CCCCC1)[C@@H](O)CC(=O)NC1CN2CCC1CC2 (stereo partly drawn) [3-benzyl-2-(S)-(isopropylsuffonylmethyl)propionyl-L-histidyl-(3S,4S)-4-amino-5-cyclohexyl 3-hydroxypentanoyl 3-quinuclidinyl amide] | 11 nM | 
2 | CC(C)CC(=O)N[C@H](C(=O)N[C@H](C(=O)N[C@@H](CC(C)C)[C@@H](O)CC(=O)N[C@@H](C)C(=O)N[C@@H](CC(C)C)[C@@H](O)CC(=O)O)C(C)C)C(C)C [pepstatin] (Isovaleryl-VV[Sta]A[Sta]-OH) |  | reduces blood pressure
